Assay results taken from patent US7879887B2, “α-amino acid derivatives and medicaments containing the same as an active ingredient” (Nissan Chemical Industries, Ltd., priority 2006, dated 2011).

Experiments:
recombinant human βARK1 = target: T1, recombinant human βARK1 (Homo sapiens, UniProt P25098); test: Inhibitory activity against βARK1 (33P phosphorylation of synthetic peptide); type: biochemical; conditions: recombinant human βARK1, 60 minutes at room temperature
T1 construct: made in house; host or cells: Sf-9 insect cells (baculovirus, pBacPAK8)
T1 sequence (P25098 1-689): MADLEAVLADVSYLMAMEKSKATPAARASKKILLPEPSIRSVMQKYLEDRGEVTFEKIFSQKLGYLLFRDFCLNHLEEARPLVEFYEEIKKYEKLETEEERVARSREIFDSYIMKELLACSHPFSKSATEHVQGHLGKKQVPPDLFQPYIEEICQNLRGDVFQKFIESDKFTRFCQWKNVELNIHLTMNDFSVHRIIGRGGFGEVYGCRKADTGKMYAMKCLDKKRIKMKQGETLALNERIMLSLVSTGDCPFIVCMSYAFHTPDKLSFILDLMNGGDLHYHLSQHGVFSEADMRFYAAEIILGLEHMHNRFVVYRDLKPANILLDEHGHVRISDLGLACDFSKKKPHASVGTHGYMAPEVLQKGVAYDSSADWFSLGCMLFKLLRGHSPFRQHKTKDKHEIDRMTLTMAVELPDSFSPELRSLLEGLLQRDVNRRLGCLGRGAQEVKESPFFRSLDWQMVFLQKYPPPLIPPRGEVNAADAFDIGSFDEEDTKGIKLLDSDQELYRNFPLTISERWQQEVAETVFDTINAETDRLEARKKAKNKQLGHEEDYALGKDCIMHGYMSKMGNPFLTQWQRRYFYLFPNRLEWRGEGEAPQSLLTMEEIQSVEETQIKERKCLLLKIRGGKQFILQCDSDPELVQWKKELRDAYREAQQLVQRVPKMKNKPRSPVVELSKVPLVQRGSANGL
Procedure: Human βARK1 was amplified by PCR based on the base sequence of human βARK1 mRNA registered in GenBank (Accession No. M80776) using a human leukocyte cDNA library (Gibco BRL Cat. No. 10421-022) as a template. The amplified cDNA fragment was inserted into a pBacPAK8 vector (Clontech) to construct a plasmid.
Recombinant human βARK1 was expressed using the BacPAK Baculovirus Expression System (Clontech, Cat. No. K1601-1). 1×10^6 Sf-9 cells were adhered to a 35 mm dish in 2.5 mL of TMN-FH Insect Medium containing 10 vol % FBS (Pharminogen, Cat. No. PM-21227M) and cultured overnight at 27° C. On the following day, the medium was removed and 500 ng of the above plasmid, BacPAK6 viral DNA cleaved with Bsu36I (5 μL) and 1.5 mL of the same medium mixed with 4 μL of Bacfectin were added followed by culturing for 5 hours, further adding 1.5 mL of medium and subsequently culturing for 5 days. […] The culture supernatant after 5 days was recovered and a plaque assay was carried out to isolate single plaques. These were then infected into Sf-9 cells and the resulting culture supernatant was designated as Passage 1 (1−3×10^11 pfu/mL). Passage 1 was added to 3×10^7 Sf-9 cells to a multiplicity of infection (MOI) of 0.1 (pfu/cell), suspension culturing was carried out for 5 days using a spinner flask, and the resulting culture supernatant was designated as Passage 2 (4×10^10 pfu/mL) and used as a viral liquid for large-volume expression.
Sf-9 cells at 3×10^9 cells/200 mL were infected by adding Passage 2 to an MOI of 100 followed by addition of medium to bring to a liquid volume of 2 L and further culturing for 3 days. After recovering the cells by centrifugation and washing three times with PBS, the cells were suspended in 100 mL of Lysis Buffer (20 mmol/L HEPES-HCl (pH 7.2), 5 mmol/L EDTA, 3 mmol/L phenylmethylsulfonyl fluoride (PMSF)). After lysing the cells by ultrasonic treatment at low temperature, the supernatant was recovered by centrifuging (45,000×g, 15 minutes) (sup1). NaCl was added to the resulting supernatant to a final concentration of 250 mmol/L followed by ultracentrifugation (300,000×g, 60 minutes) and using the subsequent supernatant as a crude cell extract (sup2).
Purification was carried out with reference to the literature (Benovic, J. L., Methods Enzymol. 1991; 200: 351-362; Kim, C. M. et al., Receptor 1993; 3: 39-55; Sohlemann, P. et al., FEBS Letters 1993; 324: 59-62). The crude cell extract was accurately brought to a volume of 400 mL with Buffer C (20 mmol/L HEPES-HCl (pH 7.2), 5 mmol/L EDTA, 0.02 vol % Triton X-100) followed by loading onto a 50 mL SP-Sepharose FF (Amersham Pharmacia Biotech) column equilibrated with Buffer C. […] ETA was carried out on each fraction using anti-GRK2 antibody (Santa-Cruz Cat. No. SC-562) and the positive fractions were collected (GRK2=βARK1). This was then diluted three-fold with Buffer C and loaded on a 5 mL HiTrap Heparin column (Amersham Pharmacia Biotech) column equilibrated with Buffer C. After washing the column with Wash Buffer (100 mmol/L NaCl, Buffer C), the column was eluted with an NaCl concentration gradient (100 to 600 mmol/L NaCl for 100 minutes, flow rate: 1 mL/min). The positive fractions as determined by ETA were collected and stored in a freezer at −80° C.
A synthetic peptide having an amino acid sequence of biotinated-[…] was used in accordance with a previous report (Chen, C. Y. et al., J. Biol. Chem. 1993; 268: 7825-7831). This synthetic peptide can also be synthesized with reference to known synthesis methods (for example, Chen, C. Y. et al., J. Biol. Chem. 1993; 268: 7825-7831, Biochemistry 1991; 30: 5118-5125). 2 μl of a DMSO solution in which the test compound was diluted to as to be […] the final concentration was dispensed into a 96-well plate (round bottom) (Falcon 351190) (final concentration: 4 vol % DMSO). […]

CDK2/Cyclin E complex = CDK2/Cyclin E complex (Homo sapiens, UniProt P24941); test: In vitro kinase assay, CDK2/Cyclin E complex; type: biochemical; conditions: recombinant protein (Upstate); read-out: CDK2/cyclinE IC50
Procedure: (§1) Inhibitory activity against Aurora A, CDK1/Cyclin B complex, CDK2/Cyclin E complex and CDK3/Cyclin E complex were measured by in vitro kinase assay using recombinant proteins.

CDK3/Cyclin E complex = target: T2, CDK3/Cyclin E complex (Homo sapiens, UniProt Q00526); test: In vitro kinase assay, CDK3/Cyclin E complex; type: biochemical; conditions: recombinant protein (Upstate); read-out: CDK3/cyclinE IC50
T2 construct: purchased Upstate Inc. 14-487
T2 sequence (Q00526 whole entry): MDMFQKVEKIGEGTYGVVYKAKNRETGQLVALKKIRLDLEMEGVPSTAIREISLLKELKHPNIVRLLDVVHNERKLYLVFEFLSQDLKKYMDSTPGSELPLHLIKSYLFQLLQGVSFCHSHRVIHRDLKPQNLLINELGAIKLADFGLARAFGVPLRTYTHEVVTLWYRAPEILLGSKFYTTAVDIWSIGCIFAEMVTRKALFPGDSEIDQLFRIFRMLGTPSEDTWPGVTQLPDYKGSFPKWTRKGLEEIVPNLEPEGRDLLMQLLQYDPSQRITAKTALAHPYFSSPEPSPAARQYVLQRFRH
T2 sequence (P24864 whole entry partner): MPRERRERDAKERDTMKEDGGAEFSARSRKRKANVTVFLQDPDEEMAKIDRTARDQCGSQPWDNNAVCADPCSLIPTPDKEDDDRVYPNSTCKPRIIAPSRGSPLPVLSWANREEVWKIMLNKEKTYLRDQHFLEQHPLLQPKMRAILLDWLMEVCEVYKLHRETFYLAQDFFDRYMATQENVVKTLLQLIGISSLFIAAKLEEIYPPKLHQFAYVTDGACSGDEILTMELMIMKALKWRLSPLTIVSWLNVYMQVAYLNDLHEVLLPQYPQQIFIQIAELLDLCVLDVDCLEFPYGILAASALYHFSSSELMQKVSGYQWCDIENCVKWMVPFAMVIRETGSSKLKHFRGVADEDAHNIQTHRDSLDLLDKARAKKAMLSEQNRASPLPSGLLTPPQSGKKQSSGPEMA
Procedure: as §1

[1] = system: colon carcinoma cell line SW620; test: Cell proliferation inhibitory activity, SW620; type: cell-based, human; conditions: Homo sapiens, SW-620, 96 h, cells counted 4 days later with Cell Counting Kit-8
Procedure, shortened: (§2)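 Each line, maintained as the supplier recommends, is incubated with test compound dilutions for 4 days (37° C, 5% CO2). Counting uses CCK-8; 0% inhibition corresponds to untreated cells, 100% to medium without cells or compound, and IC50 is calculated from these.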

[2] = system: pancreatic cancer cell line MIAPaCa-2; test: Cell proliferation inhibitory activity, MIAPaCa-2; type: cell-based; conditions: Homo sapiens, MIA PaCa-2, 96 h; cells counted 4 days later, Cell Counting Kit-8
Procedure: (§3) Evaluations were carried out using colon carcinoma cell line SW620 (Cat. No. CCL-227), lung carcinoma cell line NCI-H460 (Cat. No. HTB-177), prostate cancer cell line DU 145 (Cat. No. HTB-81), breast cancer cell line MDA-MB-231 (Cat. No. HTB26) and leukemia cell line KG-1a (Cat. No. CCL-246.1) purchased from ATCC, pancreatic cancer cell line MIAPaCa-2 (Cat. No. CRL-1420) purchased from Dainippon Pharmaceutical, and ovarian cancer cell line IGROV1 received from the Netherland Cancer Institute. The cells were cultured under the conditions recommended by the supplier for each cell line, or with respect to IGROV1, according to the method described in Cancer Res. 59: 4559-4563, 1999. Cells suspended in media were added to solutions containing the test substances at various concentrations followed by culturing in a 5% CO2 incubator at 37° C. The numbers of cells were counted 4 days later with the Cell Counting Kit-8. IC50 values were calculated by assigning measured values in the case of not containing a test substance to an inhibition of 0%, and assigning measured values in the case of not containing a test substance or cells to an inhibition of 100%.

[3] = system: prostate cancer cell line DU 145; test: Cell proliferation inhibitory activity, DU 145; type: cell-based, human; conditions: Homo sapiens, 96 h, cells counted 4 days later with Cell Counting Kit-8
Procedure, shortened: as §2

[4] = system: breast cancer cell line MDA-MB-231; test: Cell proliferation inhibitory activity, MDA-MB-231; type: cell-based; conditions: Homo sapiens, 96 h, cells counted 4 days later with Cell Counting Kit-8
Procedure: as §3

[5] = system: ovarian cancer cell line IGROV1; test: Cell proliferation inhibitory activity, IGROV1; type: cell-based; conditions: Homo sapiens, IGROV-1, 96 h, cells counted 4 days later with Cell Counting Kit-8
Procedure: as §3

leukemia cell line KG-1a = test: Cell proliferation inhibitory activity, KG-1a; type: cell-based; conditions: Homo sapiens, 96 h, cells counted 4 days later with Cell Counting Kit-8
Procedure, shortened: as §2

Aurora A = target: T3, Aurora A (Homo sapiens, UniProt O14965); test: In vitro kinase assay, Aurora A; type: biochemical; conditions: recombinant protein (Upstate)
T3 construct: purchased Upstate Inc. 14-511
T3 sequence (O14965 1-403): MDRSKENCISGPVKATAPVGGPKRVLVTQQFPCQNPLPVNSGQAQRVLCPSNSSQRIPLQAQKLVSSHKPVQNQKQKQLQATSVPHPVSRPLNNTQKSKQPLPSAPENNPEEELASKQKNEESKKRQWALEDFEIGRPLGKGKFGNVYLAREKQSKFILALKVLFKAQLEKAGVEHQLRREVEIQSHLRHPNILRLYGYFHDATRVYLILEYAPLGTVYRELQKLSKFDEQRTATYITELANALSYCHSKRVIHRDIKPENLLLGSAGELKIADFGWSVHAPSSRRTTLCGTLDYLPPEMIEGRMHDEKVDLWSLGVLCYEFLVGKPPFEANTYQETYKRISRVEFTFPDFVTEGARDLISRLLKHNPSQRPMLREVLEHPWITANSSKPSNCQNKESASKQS
Procedure, shortened: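 Recombinant human enzymes assayed per supplier protocol. IC50 derived with compound-free wells set as 0% inhibition and compound- and enzyme-free wells as 100% inhibition.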

CDK1/Cyclin B complex = target: T4, CDK1/Cyclin B complex (Homo sapiens, UniProt P06493); test: In vitro kinase assay, CDK1/Cyclin B complex; type: biochemical; conditions: recombinant protein (Upstate)
T4 construct: purchased Upstate Inc. 14-450
T4 sequence (P06493 whole entry): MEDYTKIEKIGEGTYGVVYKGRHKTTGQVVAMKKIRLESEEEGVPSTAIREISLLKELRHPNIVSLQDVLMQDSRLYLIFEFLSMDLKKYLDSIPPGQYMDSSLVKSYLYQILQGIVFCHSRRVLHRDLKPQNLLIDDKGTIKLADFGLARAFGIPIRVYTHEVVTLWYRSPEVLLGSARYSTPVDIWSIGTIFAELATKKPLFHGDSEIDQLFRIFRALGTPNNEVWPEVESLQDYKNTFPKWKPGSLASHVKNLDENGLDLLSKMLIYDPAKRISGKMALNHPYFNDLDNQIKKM
T4 sequence (P14635 whole entry partner): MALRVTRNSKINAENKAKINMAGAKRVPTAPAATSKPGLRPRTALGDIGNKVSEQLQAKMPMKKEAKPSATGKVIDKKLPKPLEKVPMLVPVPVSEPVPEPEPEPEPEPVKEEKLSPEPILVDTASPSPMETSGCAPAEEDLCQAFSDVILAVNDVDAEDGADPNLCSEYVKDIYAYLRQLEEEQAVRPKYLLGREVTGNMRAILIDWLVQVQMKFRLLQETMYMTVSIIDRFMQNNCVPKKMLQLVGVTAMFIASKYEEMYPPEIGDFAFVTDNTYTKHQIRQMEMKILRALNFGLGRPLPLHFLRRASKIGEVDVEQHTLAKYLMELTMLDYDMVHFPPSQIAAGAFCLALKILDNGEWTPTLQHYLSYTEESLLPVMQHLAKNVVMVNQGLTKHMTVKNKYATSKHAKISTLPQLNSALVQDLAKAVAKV
Procedure: Inhibitory activity against Aurora A, CDK1/Cyclin B complex, CDK2/Cyclin E complex and CDK3/Cyclin E complex were measured by in vitro kinase assay using recombinant proteins. The assays were carried out by using recombinant proteins (Upstate Inc.) for Aurora A, CDK1/Cyclin B complex, CDK2/Cyclin E complex and CDK3/Cyclin E complex (respective cat. nos. 14-511, 14-450, 14-448 and 14-487), in accordance with the procedure described in the product instructions thereof. The 50% inhibitory concentrations (IC50 values) were calculated by assigning measured values in the case of not containing a test compound to an inhibition of 0%, and assigning measured values in the case of not containing a test compound and enzyme to an inhibition of 100%.

[6] = system: lung carcinoma cell line NCI-H460; test: Cell proliferation inhibitory activity, NCI-H460; type: cell-based; conditions: Homo sapiens, 96 h, cells counted 4 days later with Cell Counting Kit-8
Procedure: as §3

Row | Structure (SMILES) | IC50 (recombinant human βARK1) [nM] | IC50 (CDK2/Cyclin E complex) [nM] | IC50 (CDK3/Cyclin E complex) [nM] | IC50 [1] [nM] | IC50 [2] [nM] | IC50 [3] [nM] | IC50 [4] [nM] | IC50 [5] [nM] | IC50 (leukemia cell line KG-1a) [nM] | IC50 (Aurora A) [nM] | IC50 (CDK1/Cyclin B complex) [nM] | IC50 [6] [nM]
1 | CC(Nc1ccc(Cl)cc1)C(=O)Nc1nc2ccc3[nH]ncc3c2s1 (stereo not shown) [compound 24] | 8 | 50 | 75 | 900 | 4800 | 3200 | 3800 | 4600 | < 100 | – | – | –
2 | CC(Nc1cccc(O)c1)C(=O)Nc1nc2ccc3[nH]ncc3c2s1 (stereo not shown) [compound 23] | – | 30 | 47 | 500 | 3500 | 1600 | 1600 | 1300 | < 100 | 47 | 150 | 1400
3 | CC(C)(Nc1ccc(Cl)c(C(=O)NOCc2ccccc2)c1)C(=O)Nc1nc2c(C(F)(F)F)cc3[nH]ncc3c2s1 [compound 98] | – | – | 128 | 500 | 4000 | 4400 | 2600 | – | – | 65 | – | 1800
4 | CCC(=O)Nc1cc(NC(C)(C)C(=O)Nc2nc3c(C(F)(F)F)cc4[nH]ncc4c3s2)ccc1F [compound 76] | 9.3 | 294 | 124 | 900 | 4900 | 1800 | 4600 | 2700 | 300 | – | – | 1500
5 | CC(C)(Nc1ccc(F)c(C(N)=O)c1)C(=O)Nc1nc2c(C(F)(F)F)cc3[nH]ncc3c2s1 [compound 138] | – | 37 | 12 | 2100 | 4300 | 2300 | – | 4500 | – | 263 | 53 | 1600
6 | CC(C)(Nc1ccc(Cl)c(OCC(O)CO)c1)C(=O)Nc1nc2c(C(F)(F)F)cc3[nH]ncc3c2s1 (stereo not shown) [compound 99] | – | 20 | 8.7 | 700 | 4500 | 1700 | 3000 | 4400 | 300 | 142 | 140 | 4100
7 | Cc1cc2[nH]ncc2c2sc(NC(=O)C3(Nc4ccc(Cl)cc4)CC3)nc12 [compound 127] | 6.2 | 128 | 185 | 700 | – | 3000 | 4300 | 4900 | < 100 | – | – | 3100
8 | CNC(=O)c1cc(NC(C)(C)C(=O)Nc2nc3c(C(F)(F)F)cc4[nH]ncc4c3s2)ccc1F [compound 137] | – | 40 | 12 | 200 | 3100 | 400 | 1900 | 3000 | < 100 | – | 39 | 400
